In publication PMC11845477, “Exploring the principles behind antibiotics with limited resistance” (Nature Communications, 2025):

How the values were obtained:
[1] = test system: P. aeruginosa ATCC BAA-3107 (SEN) and P. aeruginosa LESB58 (MDR); experiment: microbe, parasite or virus in culture; assay type: cell-based, Pseudomonas aeruginosa; conditions: for MIC: Pseudomonas aeruginosa, across three biological replicates
Description: This study focused on multiple bacterial strains, as follows. For the FoR and ALE experiments, 2 strains per species were chosen: E. coli ATCC 25922, K. pneumoniae ATCC 10031, A. baumannii ATCC 17978, and P. aeruginosa ATCC BAA-3107 as sensitive (SEN) strains, and E. coli NCTC13846, K. pneumoniae ATCC 700603, A. baumannii ATCC BAA-1605 and P. aeruginosa LESB58 as multi-drug resistant (MDR) strains. Functional metagenomic screens were performed with E. coli ATCC 25922 and K. pneumoniae ATCC 10031 strains. To determine the dose-kill properties of the different antibiotics, an E. coli strain (ATCC 25922) expressing a yellow fluorescent protein (pZS2R, YFP, CHL^R) and a red fluorescent protein (pZS2R, mCherry, CHL^R) was used.
Unless otherwise indicated, cation-adjusted Mueller-Hinton Broth 2 (MHB, Millipore) medium was used throughout the study, except for SCH79797 (SCH).
(§1) A robotic liquid handling system was used to automatically prepare a 11 to 16-step serial dilution in 384-well microtiter plates (Greiner). A final concentration of 5 × 10^5 bacterial cells per mL were inoculated into each well containing 60 µL MHB medium. Bacterial cultures were incubated at 37 °C with continuous shaking (Infors shaker, 900 rpm with 3 mm throw) for 18 hours (2 replicates from each). Cell growth was monitored by measuring the optical density (OD600 values, using Biotek Synergy microplate reader). MIC was defined as the antibiotic concentration of complete growth inhibition (i.e., OD600 < 0.05). Relative MIC was calculated as follows:1 relativeMIC=MICevolved/MICancestor

[2] = test system: E. coli ATCC 25922 (SEN) and E. coli NCTC13846 (MDR); experiment: Adaptive laboratory evolution (ALE), relative MIC of evolved lines; assay type: cell-based, Escherichia coli
Description: Using the same set of bacterial strains, we initiated adaptive laboratory evolution with the aim to maximize the level of antibiotic resistance in the populations achieved during a longer, but fixed time period.
An established protocol for adaptive laboratory evolution[46],[73] was followed to propagate populations with the highest resistance levels. Starting with an antibiotic concentration that caused approximately 50% growth inhibition, ten parallel populations for each antibiotic-ancestor strain combination were grown for 72 hours at 37 °C with continuous shaking (300 RPM). MHB broth medium was used unless stated otherwise. After each incubation, 20 µl of each culture was transferred to four new wells containing fresh medium with increasing antibiotic concentrations (0.5×, 1×, 1.5×, and 2.5× the previous concentration) in a chessboard layout to monitor potential cross-contamination. Growth was monitored by measuring OD600 using a Biotek Synergy 2 microplate reader, and only populations grown in the highest drug concentration with an OD600 > 0.2 were transferred further.
as §1, with “relativeMIC=MICevolved/MICancestor […]” for “relativeMIC=MICevolved/MICancestor”
Supplementary Figure 4. Resistance levels following adaptive laboratory evolution across bacterial strains. The level of resistance was measured as the fold change in relative MIC between evolved and ancestral strains after ~60 days of adaptive laboratory evolution. Data are grouped by bacterial strain (A. baumannii (AB), E. coli (EC), K. pneumoniae (KP), and P. aeruginosa (PA)) and categorized as either multidrug-resistant (MDR) or sensitive (SEN). Each data point represents a laboratory evolved line, and boxplots show the median, first and third quartiles, with whiskers indicating the 5th and 95th percentiles.
Statistical analysis was performed using two-sided Dunn’s post-hoc test with Benjamini-Hochberg correction for multiple comparisons (****/ ***/ **/ * indicates p < 0.0001/ 0.001/ 0.01/ 0.05). For detailed information on antibiotic and bacterial species, see Supplementary Table 1. For mode of action groups, refer to Table 1. Source data are provided as a Source Data file.
(1 picture or pasted object on this page, not shown here)

[3] = P. aeruginosa ATCC BAA 3107 (PA-SEN), ancestor strain, sheet fig 2a
[4] = PA-SEN, Pseudomonas aeruginosa ATCC BAA 3107, ancestor strain
[5] = ATCCBAA3107, Pseudomonas aeruginosa ATCC BAA-3107 (PA-SEN)
[6] = ATCCBAA3107, Pseudomonas aeruginosa LESB 58 (PA-MDR)
[7] = EC-SEN (Escherichia coli ATCC 25922), evolved line 2 adapted to the named antibiotic
[8] = EC-SEN (Escherichia coli ATCC 25922), evolved line 6 adapted to the named antibiotic
[9] = EC-SEN (Escherichia coli ATCC 25922), evolved line 9 adapted to the named antibiotic
[10] = Escherichia coli ATCC 25922 (EC-SEN), evolved line 2
[11] = Escherichia coli ATCC 25922 (EC-SEN), evolved line 3
[12] = Escherichia coli ATCC 25922 (EC-SEN), evolved line 4
[13] = Escherichia coli ATCC 25922 (EC-SEN), evolved line 5
[14] = Escherichia coli ATCC 25922 (EC-SEN), evolved line 6
[15] = Escherichia coli ATCC 25922 (EC-SEN), evolved line 7
[16] = Escherichia coli ATCC 25922 (EC-SEN), evolved line 8
[17] = Escherichia coli ATCC 25922 (EC-SEN), evolved line 9
[18] = Escherichia coli ATCC 25922 (EC-SEN), evolved line 10
[19] = P. aeruginosa LESB 58 (PA-MDR), ancestor strain, sheet fig 2a

CNC(C)C1CCC(N)C(OC2C(N)CC(N)C(OC3OCC(C)(O)C(NC)C3O)C2O)O1 (centres unmarked) [Gentamicin]
MIC of ancestor [1, 3]: 1 µg/mL | MIC of ancestor [1, 4]: 1 µg/mL | MIC [1, 5]: 1 µg/mL | MIC [1, 6]: > 32 µg/mL | Relative MIC (log10) ([2]; EC-MDR (Escherichia coli NCTC 13846), evolved line 3 adapted to the named antibiotic): 1.806 | Relative MIC (log10) ([2]; EC-MDR (Escherichia coli NCTC 13846), evolved line 5 adapted to the named antibiotic): 1.806 | Relative MIC (log10) ([2]; EC-MDR (Escherichia coli NCTC 13846), evolved line 6 adapted to the named antibiotic): 1.806 | Relative MIC (log10) ([2]; EC-MDR (Escherichia coli NCTC 13846), evolved line 7 adapted to the named antibiotic): 1.505 | Relative MIC (log10) ([2]; EC-MDR (Escherichia coli NCTC 13846), evolved line 9 adapted to the named antibiotic): 1.806 | Relative MIC ([2]; EC-MDR, Escherichia coli NCTC 13846, evolved line 1 versus ancestor): 64 | Relative MIC ([2]; EC-MDR, Escherichia coli NCTC 13846, evolved line 2 versus ancestor): 32 | Relative MIC ([2]; EC-MDR, Escherichia coli NCTC 13846, evolved line 3 versus ancestor): 64 | Relative MIC ([2]; EC-MDR, Escherichia coli NCTC 13846, evolved line 4 versus ancestor): 64 | Relative MIC ([2]; EC-MDR, Escherichia coli NCTC 13846, evolved line 5 versus ancestor): 64 | Relative MIC ([2]; EC-MDR, Escherichia coli NCTC 13846, evolved line 6 versus ancestor): 64 | Relative MIC ([2]; EC-MDR, Escherichia coli NCTC 13846, evolved line 7 versus ancestor): 32 | Relative MIC ([2]; EC-MDR, Escherichia coli NCTC 13846, evolved line 8 versus ancestor): 64 | Relative MIC ([2]; EC-MDR, Escherichia coli NCTC 13846, evolved line 9 versus ancestor): 64 | Relative MIC (log10) [2, 7]: 1.505 | Relative MIC (log10) ([2]; EC-SEN (Escherichia coli ATCC 25922), evolved line 4 adapted to the named antibiotic): 2.107 | Relative MIC (log10) ([2]; EC-SEN (Escherichia coli ATCC 25922), evolved line 5 adapted to the named antibiotic): 1.806 | Relative MIC (log10) [2, 8]: 2.107 | Relative MIC (log10) [2, 9]: 1.806 | Relative MIC ([2]; EC-SEN, Escherichia coli ATCC 25922, evolved line 2 versus ancestor): 32 | Relative MIC ([2]; EC-SEN, Escherichia coli ATCC 25922, evolved line 3 versus ancestor): 32 | Relative MIC ([2]; EC-SEN, Escherichia coli ATCC 25922, evolved line 4 versus ancestor): 128 | Relative MIC ([2]; EC-SEN, Escherichia coli ATCC 25922, evolved line 5 versus ancestor): 64 | Relative MIC ([2]; EC-SEN, Escherichia coli ATCC 25922, evolved line 6 versus ancestor): 128 | Relative MIC ([2]; EC-SEN, Escherichia coli ATCC 25922, evolved line 7 versus ancestor): 32 | Relative MIC ([2]; EC-SEN, Escherichia coli ATCC 25922, evolved line 8 versus ancestor): 64 | Relative MIC ([2]; EC-SEN, Escherichia coli ATCC 25922, evolved line 9 versus ancestor): 64 | Relative MIC ([2]; EC-SEN, Escherichia coli ATCC 25922, evolved line 10 versus ancestor): 16 | Relative MIC [2, 10]: 32 | Relative MIC [2, 11]: 32 | Relative MIC [2, 12]: 128 | Relative MIC [2, 13]: 64 | Relative MIC [2, 14]: 128 | Relative MIC [2, 15]: 32 | Relative MIC [2, 16]: 64 | Relative MIC [2, 17]: 64 | Relative MIC [2, 18]: 16 | Relative MIC ([2]; Escherichia coli NCTC 13846 (EC-MDR), evolved line 1): 64 | Relative MIC ([2]; Escherichia coli NCTC 13846 (EC-MDR), evolved line 2): 32 | Relative MIC ([2]; Escherichia coli NCTC 13846 (EC-MDR), evolved line 3): 64 | Relative MIC ([2]; Escherichia coli NCTC 13846 (EC-MDR), evolved line 4): 64 | Relative MIC ([2]; Escherichia coli NCTC 13846 (EC-MDR), evolved line 5): 64 | Relative MIC ([2]; Escherichia coli NCTC 13846 (EC-MDR), evolved line 6): 64 | Relative MIC ([2]; Escherichia coli NCTC 13846 (EC-MDR), evolved line 7): 32 | Relative MIC ([2]; Escherichia coli NCTC 13846 (EC-MDR), evolved line 8): 64 | Relative MIC ([2]; Escherichia coli NCTC 13846 (EC-MDR), evolved line 9): 64

CN[C@@H]1[C@@H](O[C@H]2O[C@H](CO)[C@@H](N)[C@H](O)[C@H]2O)OC2C[C@@H](N)[C@@H](O[C@H]3[C@H](O)[C@@H](O)[C@H](N)C[C@@H]3N)OC2[C@@H]1O (some centres unmarked) [Apramycin]
MIC [1, 5]: 8 µg/mL | MIC [1, 6]: > 32 µg/mL

Nc1nc(-n2cc(C(=O)O)c(=O)c3cc(F)c(N4CC(O)C4)c(Cl)c32)c(F)cc1F [Delafloxacin]
MIC of ancestor [1, 19]: 2 µg/mL | MIC of ancestor ([1]; Pseudomonas aeruginosa ATCC BAA 3107 (PA-SEN), ancestor strain): 0.0156 µg/mL | MIC of ancestor ([1]; Pseudomonas aeruginosa LESB 58 (PA-MDR), ancestor strain): 2 µg/mL | MIC [1, 5]: < 0.0312 µg/mL | MIC [1, 6]: 2 µg/mL | Relative MIC ([2]; EC-SEN (ATCC 25922), evolved line 1, MIC of evolved line / MIC of ancestor): 128 | Relative MIC ([2]; EC-SEN (ATCC 25922), evolved line 2, MIC of evolved line / MIC of ancestor): 1024 | Relative MIC ([2]; EC-SEN (ATCC 25922), evolved line 3, MIC of evolved line / MIC of ancestor): 512 | Relative MIC ([2]; EC-SEN (ATCC 25922), evolved line 4, MIC of evolved line / MIC of ancestor): 512 | Relative MIC ([2]; EC-SEN (ATCC 25922), evolved line 5, MIC of evolved line / MIC of ancestor): 128 | Relative MIC ([2]; EC-SEN (ATCC 25922), evolved line 6, MIC of evolved line / MIC of ancestor): 1024 | Relative MIC ([2]; EC-SEN (ATCC 25922), evolved line 7, MIC of evolved line / MIC of ancestor): 2048 | Relative MIC ([2]; EC-SEN (ATCC 25922), evolved line 8, MIC of evolved line / MIC of ancestor): 256 | Relative MIC ([2]; EC-SEN (ATCC 25922), evolved line 9, MIC of evolved line / MIC of ancestor): 2048 | Relative MIC ([2]; EC-SEN (ATCC 25922), evolved line 10, MIC of evolved line / MIC of ancestor): 512 | Relative MIC (log10) [2, 7]: 3.0103 | Relative MIC (log10) [2, 8]: 3.0103 | Relative MIC (log10) ([2]; EC-SEN (Escherichia coli ATCC 25922), evolved line 7 adapted to the named antibiotic): 3.311 | Relative MIC (log10) [2, 9]: 3.311 | Relative MIC (log10) ([2]; EC-SEN (Escherichia coli ATCC 25922), evolved line 10 adapted to the named antibiotic): 2.709 | Relative MIC ([2]; Escherichia coli ATCC 25922 (EC-SEN), evolved line 1): 128 | Relative MIC [2, 10]: 1024 | Relative MIC [2, 11]: 512 | Relative MIC [2, 12]: 512 | Relative MIC [2, 13]: 128 | Relative MIC [2, 14]: 1024 | Relative MIC [2, 15]: 2048 | Relative MIC [2, 16]: 256 | Relative MIC [2, 17]: 2048 | Relative MIC [2, 18]: 512

COc1c(N2C[C@@H]3CCCN[C@@H]3C2)c(F)cc2c(=O)c(C(=O)O)cn(C3CC3)c12 [Moxifloxacin]
MIC of ancestor [1, 3]: 1 µg/mL | MIC of ancestor ([1]; Pseudomonas aeruginosa ATCC BAA 3107 (PA-SEN), ancestor): 1 µg/mL | MIC [1, 5]: 1 µg/mL | MIC [1, 6]: 32 µg/mL

C[C@@H](O)[C@H]1C(=O)N2C(C(=O)O)=C(S[C@@H]3CN[C@H](C(=O)N(C)C)C3)[C@H](C)[C@H]12 [Meropenem]
MIC of ancestor [1, 3]: 0.0312 µg/mL | MIC of ancestor [1, 19]: 2 µg/mL | MIC of ancestor ([1]; PA-MDR, Pseudomonas aeruginosa LESB 58, ancestor strain): 2 µg/mL | MIC of ancestor [1, 4]: 0.0312 µg/mL | MIC [1, 5]: 0.0312 µg/mL | MIC [1, 6]: 2 µg/mL
